Experimental data taken from patent US9303006B2, “Line leaf inula flower lactone A and methods for preparing and using the same for treating myocarditis” (SHANXI ZHENDONG PILOT BIOLOGICAL SCIENCE AND TECHNOLOGY …, priority 2012, dated 2016).
Several values for one entry are separate records, joined by “and”; a condition that tells them apart may be missing. Equal entries are not always repeated. Entries after “also recorded” stand apart in the source; their conditions may differ.

Assays:
[1] = system: mouse EAM model; test: Mouse experimental autoimmune myocarditis (EAM) model: HW/BW, cardiac morphology, HE pathology; format: in vivo, mice
Protocol: (§1) Pig myocardial myosin (PCM, 1 mg/ml; Sigma, St. Louis, Mo.) (Sigma), and equal volume of Freund's Complete Adjuvant (FCA, Sigma St. Louis, Mo.), were in an uniform emulsification and mixed into a homogeneous emulsion, where the mycobacterium tuberculosis H37Ra bead (Difco, Detroit, Mich.) with final concentration at 5 mg/ml. In the 0th day, the emulsion 0.2 ml (including antigen 200 μg) was taken and subcutaneously administered at the bilateral inguinal and multiple points under the armpit in mice. Seven days after the first immunization, the same procedure was performed to strengthen the immune once. The animals were divided into groups, each group had six mice.
(§2) Beginning on the day of immunity, the mice were given line leaf inula flower lactone A continuously for 21 days. Two dosing methods were applied:
(§3) (1) intraperitoneal injection: Line leaf inula flower lactone A of Example 1 was dissolved in phosphate buffer solution (PBS) (containing 5% DMSO (dimethyl sulfoxide)). The 4 concentration gradients were at 2.5 mg/kg/d^−1 (2.5 mg/kg every time, once a day); 5 mg/kg/d^−1; 10 mg/kg/d^−1; and 20 mg/kg/d^−1.
(2) Intragastric Administration: Line leaf inula flower lactone A suspended in 0.5% CMC-Na (carboxymethyl cellulose sodium). The 3 concentration gradients were at: 10 mg/kg/d^−1; 50 mg/kg/d^−1; and 100 mg/kg/d^−1.
(§4) Mice after 21 days were killed by taking off the neck, shearing heart, weighing and take photos, pathological section (HE hematoxylin-eosin staining), cytokine TNF-α change.
(1) heart and body weight ratio (HW/BW). Myocarditis in mice after the onset of the myocarditis should have the heart weight/body weight ratio larger than the model group, if the medication was effective, the ratio should be small and close to the normal group.
(2) Cardiac morphology. After the onset of the EAM in mice, the heart appeared swelling and pale as the result of the infiltration by inflammatory cells. Intraperitoneal injection of the line leaf inula flower lactone A (XX-3) were given at various dosages.
(4) pathology (conventional HE staining). Mice were killed by taking off the neck, heart was taken out, and residual blood was removed. Each heart was fixed in 10% formaldehyde, paraffin embedded, continuous sliced with conventional HE staining and observed under the microscope. The model group had visible focal myocardial cell degeneration necrosis, cytoplasm red dye, nuclear disappeared, with some muscle dissolved, interstitial broadening, and various inflammatory cell infiltration.

[2] = system: coxsackie B group virus B3 type Nancy strains (CVB3); test: Life protection (survival time) of mice infected by CVB3; format: in vivo, Balb/c male mice; settings: for Survival time M: CVB3-infected mice, observed 14 days; for prolonged survival time, extended percentage: vs virus control
Protocol: (§5) The thin Leaf inula flower lactone A compound from Example 1 was used; a viral strain: coxsackie B group virus B3 type Nancy strains (CVB3) was used at a virus infection dose of 10LD50 virus 0.2 ml through abdominal cavity infection in mice. The animals used were Balb/c male mice, 13 g to 15 g, from Shanghai West S&P-Bick Experimental Animals Co., Ltd. with animal number: qualified SCXX (Shanghai), 2008-0016. The positive control medicine was human recombinant interferon alpha 2 a, YinTeFen, Shenyang Junior Pharmaceutical co., Ltd., Product batch number 20090708.
(§6) Preparation and administration: the line leaf inula flower lactone A compound was weighed, ground, and suspended in 0.5% CMC (carboxymethyl cellulose) mixture at 10 mg/ml solution. Oral administration of the medicine was conducted for once per day, every time at 0.5 ml, for 7 days.
(§7) The experimental groups included (1) the viral infection group, each group had 10 mice, were given 0.5% CMC solution and virus.
Test process was that after virus infection in mice (except the normal control group) for 2 hours, total drug delivery was performed 7 days in a row, observation was conducted until 14 days. The incidence and deaths were recorded every day, and the average survival days prolongation of life were calculated with p value calculation.

[3] = system: TNF-α; test: Serum TNF-α in the mouse EAM model; format: in vivo, mice
Protocol: as §1, §2, §3, §4
(3) TNF-α change. TNF-α was an inflammation factor that played an important role in the onset of the EAM. […]

[4] = system: coxsackie B group virus B3 type Nancy strains (CVB3); test: Serum neutralizing antibody in CVB3-infected mice; format: in vivo, Balb/c male mice; settings: oral treatment; concentration-response relationship by 7 days
Protocol: as §5, §6, §7
Another group of 10 mice, with infection, was weighed after 7 days. Four mice were taken to detect cardiac function, and killed and dissected for collecting blood to test neutralizing antibody, heart weighing calculation index, and grinding the heart, with three resistance MEM fluid containing 10%. […]

[5] = system: CVB3-Infected Mice; test: Live body weight in CVB3-infected mice; format: in vivo, Balb/c male mice
Protocol: as §5, §6, §7
(§8) Another group of 10 mice, with infection, was weighed after 7 days. Four mice were taken to detect cardiac function, and killed and dissected for collecting blood to test neutralizing antibody, heart weighing calculation index, and grinding the heart, with three resistance MEM fluid containing 10%. 1:10 dilution, on the cell model to detect coxsackie virus in mice drop degree (to observe the myocardial cell lesions) separation of virus infection.

[6] = system: coxsackie B group virus B3 type Nancy strains (CVB3); test: CVB3-infected mice myocardial virus measured on cell model at 7th day (heart homogenate 1:10, cell lesions); format: in vivo, Balb/c male mice; settings: for 1:10 (cell lesions from myocardial homogenate) / Lesions rate % / Average disease rate % / Reduce lesions: 7th day; for 1:10 (cell lesions from myocardial homogenate) / Lesions rate %: individual mice NO 1-5, listed as leaves Inula flowers lactone A; for Average disease rate %: virus control 90%; for Reduce lesions: vs virus control
Protocol: as §5, §6, §7, §8

With `C=C1C(=O)O[C@H]2C[C@@H](C)[C@@H]3[C@@H](OC(C)=O)C[C@H](O)[C@@]3(C)[C@@H](OC(C)=O)[C@H]12` [line leaf inula flower lactone A] the “curative effect on EAM in mice” value ([1]; 100 mg/kg/d intragastric administration) was “has certain curative effect”, the “pathology (HE staining), efficacy” value ([1]; intragastric administration at 100 mg/kg·d^−1) was “worked the best” and the “Cardiac morphology, effect on the EAM model” value ([1]; intragastric administration, 21 days, FIG. 3) was “has curative effect on the EAM model”. The “Cardiac morphology, efficacy” value ([1]; intraperitoneal injection 20 mg/kg/d^−1, 21 days) was “worked the best efficacy”, the “heart and body weight ratio (HW/BW)” value ([1]; intraperitoneal injection 20 mg/kg/d^−1, 21 days, FIG. 1) was “changed HW/BW significantly” and the “pathology (HE staining), efficacy” value ([1]; intraperitoneal injection at 20 mg/kg·d^−1) was “worked the best”. The “occurrence of the EAM in mice” value ([1]; intraperitoneal injection of 20 mg/kg/d) was “prevents the occurrence of the EAM in mice”, the “most effective dose (cardiac morphology)” value ([1]; intraperitoneal injection, 21 days) was 20 mg/kg/d^−1 and the “Cardiac morphology, degree and extent of the lesion vs model and solvent control groups” value ([1]; intraperitoneal injection, various dosages (2.5-20 mg/kg/d^−1), 21 days, FIG. 2) was “various degrees of improvement”. The “pathology (HE staining), myocardial inflammation” value ([1]; various dosages, vs model and solvent control groups, FIG. 5) was “had curative effect on myocardial inflammation in mice”, the “Survival time M” value ([2]; 10 mg/kg oral once per day for 7 days) was 8.9 days and the “prolonged survival time, extended percentage” value ([2]; 10 mg/kg oral) was 21.92%. The “Survival time M” value ([2]; 50 mg/kg oral once per day for 7 days) was 9 days, the “prolonged survival time, extended percentage” value ([2]; 50 mg/kg oral) was 23.29% and the “Survival time M” value ([2]; 100 mg/kg oral once per day for 7 days) was 9.4 days. The “prolonged survival time, extended percentage” value ([2]; 100 mg/kg oral) was 28.77%, the “activity against coxsackie virus” value ([2]; summary statement, concentration-response correlation) was “has activity against coxsackie virus” and the “levels of serum TNF-α vs model group” value ([3]; intraperitoneal injection 20 mg/kg, 21 days, #P<0.05) was “the difference was significant”. The “levels of serum TNF-α vs model group” value ([3]; intraperitoneal injection, 21 days after first immunization, FIG. 4) was “decreased”, the “effect on neutralizing antibodies in the CVB3-infected mice” value [4] was “improved the neutralizing antibodies” and the “Live body weight M ± SD” value ([5]; 10 mg/Kg, 4 days) was 15.23 ± 1.01. The “Live body weight M ± SD” value ([5]; 10 mg/Kg, 8 days) was 15.59 ± 0.89, the “Live body weight M ± SD” value ([5]; 10 mg/Kg, 14 days) was 17.92 ± 1.10 and the “Live body weight M ± SD” value ([5]; 10 mg/Kg, Before) was 14.59 ± 0.71. For the same compound, the “Live body weight M ± SD” value ([5]; 50 mg/Kg, 4 days) was 15.14 ± 0.68, the “Live body weight M ± SD” value ([5]; 50 mg/Kg, 8 days) was 16.03 ± 0.96 and the “Live body weight M ± SD” value ([5]; 50 mg/Kg, 14 days) was 18.33 ± 0.80. The “Live body weight M ± SD” value ([5]; 50 mg/Kg, Before) was 14.58 ± 0.49, the “Live body weight M ± SD” value ([5]; 100 mg/Kg, 4 days) was 15.13 ± 0.88 and the “Live body weight M ± SD” value ([5]; 100 mg/Kg, 8 days) was 16.1 ± 1.05. For the same compound, the “Live body weight M ± SD” value ([5]; 100 mg/Kg, 14 days) was 18.21 ± 0.86, the “Live body weight M ± SD” value ([5]; 100 mg/Kg, Before) was 14.57 ± 0.55 and the “1:10 (cell lesions from myocardial homogenate)” value ([6]; 10 mg/kg oral) was “+ (: + 50%); also recorded: ++ (++ 100%)”. The Lesions rate % ([6]; 10 mg/kg oral) was 50% (4×) and 100%, the “Average disease rate %” value ([6]; 10 mg/kg oral) was 60% and the Reduce lesions ([6]; 10 mg/kg oral) was 33.33%. For the same compound, the “1:10 (cell lesions from myocardial homogenate)” value ([6]; 50 mg/kg oral) was “± (plus or minus: 0%); also recorded: + (: + 50%); also recorded: ++ (++ 100%)”, the Lesions rate % ([6]; 50 mg/kg oral) was 25% and 50% (3×) and 100% and the “Average disease rate %” value ([6]; 50 mg/kg oral) was 55%. For the same compound, the Reduce lesions ([6]; 50 mg/kg oral) was 38.89%, the “1:10 (cell lesions from myocardial homogenate)” value ([6]; 100 mg/kg oral) was “± (plus or minus: 0%); also recorded: + (: + 50%)” and the Lesions rate % ([6]; 100 mg/kg oral) was 25% (2×) and 50% (3×). The “Average disease rate %” value ([6]; 100 mg/kg oral) was 40%, the Reduce lesions ([6]; 100 mg/kg oral) was 55.56% and the “effect on the coxsackie virus replication in the myocardial” value ([6]; CVB3-infected mice, oral treatment) was “inhibitory effect”.
